Experimental data published in PubChem BioAssay (NCI).
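Assay format: 96-well plates, 48-hour exposure. TGI marks complete inhibition of growth.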

Legend:
Assay in all cases: NCI anticancer screen, dose series, 48 h
XF 498 CNS = system: XF 498 CNS
SF-539 CNS = system: SF-539 CNS
UO-31 renal = system: UO-31 renal
HCT-116 colon = system: HCT-116 colon
M14 melanoma = system: M14 melanoma
HCC-2998 colon = system: HCC-2998 colon
SF-268 CNS = system: SF-268 CNS
SK-MEL-5 melanoma = system: SK-MEL-5 melanoma
KM20L2 colon = system: KM20L2 colon
HT29 colon = system: HT29 colon
UACC-62 melanoma = system: UACC-62 melanoma
PC-3 prostate = system: PC-3 prostate
DMS 114 small cell lung = system: DMS 114 small cell lung
786-0 renal = system: 786-0 renal
NCI-H460 lung = system: NCI-H460 lung
SK-OV-3 ovarian = system: SK-OV-3 ovarian
MOLT-4 leukemia = system: MOLT-4 leukemia
SNB-78 CNS = system: SNB-78 CNS
SF-295 CNS = system: SF-295 CNS
RXF 393 renal = system: RXF 393 renal
HS 578T breast = system: HS 578T breast
NCI-H226 lung = system: NCI-H226 lung
OVCAR-8 ovarian = system: OVCAR-8 ovarian
HCT-15 colon = system: HCT-15 colon
MCF7 breast = system: MCF7 breast
OVCAR-4 ovarian = system: OVCAR-4 ovarian
NCI/ADR-RES ovarian = system: NCI/ADR-RES ovarian
A549 NSCLC = system: A549 NSCLC
UACC-257 melanoma = system: UACC-257 melanoma
TK-10 renal = system: TK-10 renal
IGROV1 ovarian = system: IGROV1 ovarian
SNB-75 CNS = system: SNB-75 CNS
CAKI-1 renal = system: CAKI-1 renal
SN12C renal = system: SN12C renal
SR leukemia = system: SR leukemia
SW-620 colon = system: SW-620 colon
ACHN renal = system: ACHN renal
K-562 leukemia = system: K-562 leukemia
EKVX NSCLC = system: EKVX NSCLC
SNB-19 CNS = system: SNB-19 CNS
DU-145 prostate = system: DU-145 prostate
A498 renal = system: A498 renal
SK-MEL-2 melanoma = system: SK-MEL-2 melanoma
M19-MEL melanoma = system: M19-MEL melanoma
RPMI-8226 leukemia = system: RPMI-8226 leukemia
SK-MEL-28 melanoma = system: SK-MEL-28 melanoma
COLO 205 colon = system: COLO 205 colon
HL-60(TB) leukemia = system: HL-60(TB) leukemia
KM12 colon = system: KM12 colon
OVCAR-5 ovarian = system: OVCAR-5 ovarian
DMS 273 small cell lung = system: DMS 273 small cell lung
MDA-MB-231 breast = system: MDA-MB-231 breast
LOX IMVI melanoma = system: LOX IMVI melanoma
LXFL 529 NSCLC = system: LXFL 529 NSCLC
MALME-3M melanoma = system: MALME-3M melanoma
OVCAR-3 ovarian = system: OVCAR-3 ovarian
NCI-H23 lung = system: NCI-H23 lung
U251 CNS = system: U251 CNS
MDA-N = system: MDA-N
NCI-H522 lung = system: NCI-H522 lung
MDA-MB-435 = system: MDA-MB-435
HOP-18 NSCLC = system: HOP-18 NSCLC
HOP-62 NSCLC = system: HOP-62 NSCLC
T-47D breast = system: T-47D breast
HOP-92 NSCLC = system: HOP-92 NSCLC
RXF-631 renal = system: RXF-631 renal
CCRF-CEM leukemia = system: CCRF-CEM leukemia
DLD-1 colon = system: DLD-1 colon

C=CCNc1nc2c(s1)C(=O)c1ccccc1C2=O
TGI (XF 498 CNS): 34.8 µM
TGI (SF-539 CNS): 16.7 µM
TGI (UO-31 renal): 26.1 µM
TGI (HCT-116 colon): 13.6 µM
TGI (M14 melanoma): 16.7 µM
TGI (HCC-2998 colon): 35.3 µM
TGI (SF-268 CNS): 26 µM
TGI (SK-MEL-5 melanoma): 3.1 µM
TGI (KM20L2 colon): 33.5 µM
TGI (HT29 colon): 50.2 µM
TGI (UACC-62 melanoma): 9.37 µM
TGI (PC-3 prostate): 30.3 µM
TGI (DMS 114 small cell lung): 3.27 µM
TGI (786-0 renal): 28.5 µM
TGI (NCI-H460 lung): 28.5 µM
TGI (SK-OV-3 ovarian): 31.7 µM
TGI (MOLT-4 leukemia): 10.6 µM
TGI (SNB-78 CNS): 72.9 µM
TGI (SF-295 CNS): 28.2 µM
TGI (RXF 393 renal): 35.4 µM
TGI (HS 578T breast): > 100 µM
TGI (NCI-H226 lung): 40.1 µM
TGI (OVCAR-8 ovarian): 20.1 µM
TGI (HCT-15 colon): 30.7 µM
TGI (MCF7 breast): 24.4 µM
TGI (OVCAR-4 ovarian): 26.4 µM
TGI (NCI/ADR-RES ovarian): 82.8 µM
TGI (A549 NSCLC): 19.3 µM
TGI (UACC-257 melanoma): 7.2 µM
TGI (TK-10 renal): 34.2 µM
TGI (IGROV1 ovarian): 38.3 µM
TGI (SNB-75 CNS): 38.8 µM
TGI (CAKI-1 renal): 26.8 µM
TGI (SN12C renal): 27.4 µM
TGI (SR leukemia): > 100 µM
TGI (SW-620 colon): 32.4 µM
TGI (ACHN renal): 20.2 µM
TGI (K-562 leukemia): 35.8 µM
TGI (EKVX NSCLC): 29 µM
TGI (SNB-19 CNS): 19.2 µM
TGI (DU-145 prostate): 35.6 µM
TGI (A498 renal): 34 µM
TGI (SK-MEL-2 melanoma): 25.9 µM
TGI (M19-MEL melanoma): 3.22 µM
TGI (RPMI-8226 leukemia): 17.4 µM
TGI (SK-MEL-28 melanoma): 32.8 µM
TGI (COLO 205 colon): 41.2 µM
TGI (HL-60(TB) leukemia): 4.02 µM
TGI (KM12 colon): 28.1 µM
TGI (OVCAR-5 ovarian): 37.5 µM
TGI (DMS 273 small cell lung): 28.2 µM
TGI (MDA-MB-231 breast): 23.8 µM
TGI (LOX IMVI melanoma): 19.6 µM
TGI (LXFL 529 NSCLC): 24.2 µM
TGI (MALME-3M melanoma): 25.6 µM
TGI (OVCAR-3 ovarian): 37.6 µM
TGI (NCI-H23 lung): 21.8 µM
TGI (U251 CNS): 20.1 µM
TGI (MDA-N): 3.28 µM
TGI (NCI-H522 lung): 21.4 µM
TGI (MDA-MB-435): 3.31 µM
TGI (HOP-18 NSCLC): 23.1 µM
TGI (HOP-62 NSCLC): 26.7 µM
TGI (T-47D breast): 68.3 µM
TGI (HOP-92 NSCLC): 21.8 µM

COc1ccc(C(=O)O[C@H]2[C@@H]3C=CO[C@@H](OC4OC(CO)C(O)C(O)C4O)[C@@H]3[C@@]3(CO)O[C@@H]23)cc1O (some centres undefined)
TGI (XF 498 CNS): > 100 µM
TGI (SF-539 CNS): > 100 µM
TGI (UO-31 renal): > 100 µM
TGI (M14 melanoma): > 100 µM
TGI (HCC-2998 colon): > 100 µM
TGI (SF-268 CNS): > 100 µM
TGI (SK-MEL-5 melanoma): > 100 µM
TGI (KM20L2 colon): > 100 µM
TGI (HT29 colon): > 100 µM
TGI (UACC-62 melanoma): > 100 µM
TGI (DMS 114 small cell lung): > 100 µM
TGI (786-0 renal): > 100 µM
TGI (NCI-H460 lung): > 100 µM
TGI (SK-OV-3 ovarian): > 100 µM
TGI (MOLT-4 leukemia): > 100 µM
TGI (SNB-78 CNS): > 100 µM
TGI (SF-295 CNS): > 100 µM
TGI (RXF 393 renal): > 100 µM
TGI (OVCAR-8 ovarian): > 100 µM
TGI (OVCAR-4 ovarian): > 100 µM
TGI (A549 NSCLC): > 100 µM
TGI (UACC-257 melanoma): > 100 µM
TGI (TK-10 renal): > 100 µM
TGI (IGROV1 ovarian): > 100 µM
TGI (SNB-75 CNS): > 100 µM
TGI (CAKI-1 renal): > 100 µM
TGI (SN12C renal): > 100 µM
TGI (SW-620 colon): > 100 µM
TGI (ACHN renal): > 100 µM
TGI (RXF-631 renal): > 100 µM
TGI (K-562 leukemia): > 100 µM
TGI (EKVX NSCLC): > 100 µM
TGI (SNB-19 CNS): > 100 µM
TGI (A498 renal): > 100 µM
TGI (SK-MEL-2 melanoma): > 100 µM
TGI (M19-MEL melanoma): > 100 µM
TGI (RPMI-8226 leukemia): > 100 µM
TGI (SK-MEL-28 melanoma): > 100 µM
TGI (CCRF-CEM leukemia): > 100 µM
TGI (COLO 205 colon): > 100 µM
TGI (HL-60(TB) leukemia): > 100 µM
TGI (KM12 colon): > 100 µM
TGI (OVCAR-5 ovarian): > 100 µM
TGI (DMS 273 small cell lung): > 100 µM
TGI (LOX IMVI melanoma): > 100 µM
TGI (LXFL 529 NSCLC): > 100 µM
TGI (MALME-3M melanoma): > 100 µM
TGI (OVCAR-3 ovarian): > 100 µM
TGI (NCI-H23 lung): > 100 µM
TGI (U251 CNS): > 100 µM
TGI (DLD-1 colon): > 100 µM
TGI (NCI-H522 lung): > 100 µM
TGI (HOP-62 NSCLC): > 100 µM
TGI (HOP-92 NSCLC): > 100 µM

COc1ccc(OC)c(NC(=O)CCC/C(CC(=O)c2ccc(O)c(OC)c2)=N\Nc2nnc(C)n2N)c1
TGI (XF 498 CNS): > 100 µM
TGI (SF-539 CNS): > 100 µM
TGI (UO-31 renal): > 100 µM
TGI (M14 melanoma): > 100 µM
TGI (HCC-2998 colon): > 100 µM
TGI (SF-268 CNS): > 100 µM
TGI (SK-MEL-5 melanoma): > 100 µM
TGI (KM20L2 colon): > 100 µM
TGI (HT29 colon): > 100 µM
TGI (UACC-62 melanoma): > 100 µM
TGI (DMS 114 small cell lung): > 100 µM
TGI (786-0 renal): > 100 µM
TGI (NCI-H460 lung): > 100 µM
TGI (SK-OV-3 ovarian): > 100 µM
TGI (MOLT-4 leukemia): > 100 µM
TGI (SF-295 CNS): > 100 µM
TGI (NCI-H226 lung): > 100 µM
TGI (OVCAR-8 ovarian): > 100 µM
TGI (HCT-15 colon): > 100 µM
TGI (OVCAR-4 ovarian): > 100 µM
TGI (A549 NSCLC): > 100 µM
TGI (UACC-257 melanoma): > 100 µM
TGI (TK-10 renal): > 100 µM
TGI (IGROV1 ovarian): > 100 µM
TGI (SNB-75 CNS): > 100 µM
TGI (CAKI-1 renal): > 100 µM
TGI (SN12C renal): > 100 µM
TGI (SR leukemia): > 100 µM
TGI (SW-620 colon): > 100 µM
TGI (ACHN renal): > 100 µM
TGI (K-562 leukemia): > 100 µM
TGI (EKVX NSCLC): > 100 µM
TGI (SNB-19 CNS): > 100 µM
TGI (A498 renal): > 100 µM
TGI (SK-MEL-2 melanoma): > 100 µM
TGI (M19-MEL melanoma): > 100 µM
TGI (RPMI-8226 leukemia): > 100 µM
TGI (SK-MEL-28 melanoma): > 100 µM
TGI (CCRF-CEM leukemia): > 100 µM
TGI (COLO 205 colon): > 100 µM
TGI (HL-60(TB) leukemia): > 100 µM
TGI (KM12 colon): > 100 µM
TGI (OVCAR-5 ovarian): > 100 µM
TGI (DMS 273 small cell lung): > 100 µM
TGI (LOX IMVI melanoma): > 100 µM
TGI (LXFL 529 NSCLC): > 100 µM
TGI (MALME-3M melanoma): > 100 µM
TGI (OVCAR-3 ovarian): > 100 µM
TGI (NCI-H23 lung): > 100 µM
TGI (U251 CNS): > 100 µM
TGI (DLD-1 colon): > 100 µM
TGI (NCI-H522 lung): > 100 µM
TGI (HOP-18 NSCLC): > 100 µM
TGI (HOP-62 NSCLC): > 100 µM
TGI (HOP-92 NSCLC): > 100 µM
